# Laboratory results: patent publication US8716242B2, “β-hairpin peptidomimetics” (priority 2009, dated 2014)
# Numbered stars: 1 amine (or outer) side, 2 acyl side, 3 side chain; on linkers, the order of the positions; unused ones are H or OH. Bridge positions count the residues as written; N and C are the ends. Square brackets hold non-standard residues; d marks the D form. Side chains are listed from the residue outwards. Peptide text beside a SMILES is read from it. * marks the point of attachment. γGlu = O=C(O)[C@H](CCC(=O)[*:2])N[*:1]; Lauroyl = CCCCCCCCCCCC(=O)*; Dab = NCC[C@H](N)C(=O)O
# What was measured:
# [1] = Plasma stability in mouse plasma; format: in vitro ADME; conditions: mouse plasma, 37° C.; for remaining at 24 h, 10 μM: 1440 min, read-out: mouse pl. cpd left at 1440 min; for mouse pl. T1/2: up to 1440 min
# Method in brief: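 Peptides (1 mM DMSO/H2O stock) were spiked into human or mouse plasma in triplicate and incubated at 37 °C, sampling from 0 to 1440 min. Samples were quenched in formic acid/acetonitrile and analysed by LC/MS MRM. Remaining percent of t=0 was calculated and T1/2 derived by trend fitting.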
# in vivo = experiment: in vivo; parameters: species or system male CD-1 mice; conditions: for bioavailability / AUC(0-inf) / Cmax / Tmax / half-life / level at 0.083 h / level at 0.25 h / level at 0.5 h / level at 1 h / level at 2 h / level at 4 h / level at 8 h / level at 12 h / level at 24 h: male, CD-1, mouse; for AUC0-∞ dcor. / Cmax dcor.: mouse
# Procedure: 2.7. Pharmacokinetic Study (PK)
# Pharmacokinetic study after intravenous (i.v.) and subcutaneous (s.c.) administration was performed for the compounds of Ex. 17, Ex. 20, Ex. 25, Ex. 26, Ex. 28, and Ex. 29. […] The compounds of Ex. 17, Ex. 25, Ex. 26, Ex. 28, and Ex. 29 were administered i.v. and s.c. as a cassette whereas for the compound of Ex. 20a single i.v. and s.c. administration was accomplished.
# 30 grams (±20%) male CD-1 mice obtained from Janvier, France, were used in the study testing the cassette compounds. The vehicle, phosphate buffered saline containing 5% DMSO, was added to give a final concentration of 0.5 mg/mL of the compounds (i.v. route and s.c. route). The volume was 2 mL/kg i.v. and 10 mL/kg s.c. and the cassette compounds were injected to give a final intravenous dose of 1 mg/kg and an subcutaneous dose of 5 mg/kg. Approximately 500 μL of blood were removed from the opened heart at predetermined time intervals (5, 15, 30 min and 1, 2, 4, 8 and 12 hours for the i.v. study and 5, 15, 30 min and 1, 2, 4, 8, 12 and 24 hours for the s.c. study) and added to heparinized tubes. Plasma was removed from pelleted cells upon centrifugation and frozen at −80° C. prior to HPLC-MS analysis. For the compound of Ex. 20 30 grams (±20%) male CD-1 mice obtained from Charles River Laboratories Deutschland GmbH were used. The vehicle, phosphate buffered saline, was added to give a final concentration of 0.2 mg/mL of the compound (i.v. route) and 1 mg/mL (s.c. route). The volume was 5 mL/kg i.v. and s.c. and the compound was injected to give a final intravenous dose of 1 mg/kg and an subcutaneous dose of 5 mg/kg. Approximately 300-400 μL of blood was removed under light isoflurane anesthesia by cardiac puncture at predetermined time intervals (5, 15, 30 min and 1, 2, 3, 4, 6, 12 hours for the i.v. study and 15, min and 1, 2, 4, 6, 8, 12 and 24 hours for the s.c. study) and added to heparinized tubes. Plasma was removed from pelleted cells upon centrifugation and frozen at −80° C. prior to HPLC-MS analysis.
# Preparation of the Plasma Calibration Samples
# “Blank” mouse plasma from untreated animals was used. Aliquots of plasma of 0.2 mL each were spiked with 50 ng of propranolol (Internal Standard, IS), (sample preparation by solid phase extraction on OASIS® HLB cartridges [Waters]) and with known amounts of Ex. 20 in order to obtain 9 plasma calibration samples in the range 10-5000 nM. The OASIS® HLB cartridges were conditioned with 1 mL of methanol and then with 1 mL of 1% NH3 in water. Samples were then diluted with 700 μL of 1% NH3 in water and loaded. The plate was washed with 1 mL of methanol/1% NH3 in water 5/95 (v/v). Elution was performed using 1 mL of 0.1% TFA in methanol.
# The plate containing eluates was introduced into the concentrator system and taken to dryness. The residues were dissolved in 100 μL of formic acid 0.1%/acetonitrile, 95/5 (v/v) and analysed in the HPLC/MS on a reverse phase analytical column (Jupiter C18, 50×2.0 mm, 5 μm, Phenomenex), using gradient elution (mobile phases A: 0.1% formic acid in water, B: acetonitrile; from 5% B to 100% B in 2 min.).
# Preparation of Plasma Samples
# Samples coming from animal treatments were pooled in order to obtain an appropriate volume for the extraction. If the total volume obtained was less than 0.2 mL the appropriate amount of “blank” mouse plasma was added in order to keep the matrix identical to the calibration curve. Samples were than spiked with IS and processed as described for the calibration curve.
# Pharmacokinetic Evaluation
# In order to perform PK analysis pooled plasma data (n=3 mice) was used. PK parameters were calculated by WinNonLin™ software version 5.2.1 (Pharsight—A Certara™ Company, Mountain View, Calif. 94041 USA) using non-compartmental analysis with a linear up/log down trapezoidal calculation method. For the terminal elimination phase at least 3 time points and a correlation coefficient greater than 0.85 was used. […]
Compound,"remaining at 24 h, 10 μM [1]",mouse pl. T1/2 [1],bioavailability (in vivo),"AUC(0-inf) (in vivo; iv, 1 mg/kg)","Cmax (in vivo; iv, 1 mg/kg)","Tmax (in vivo; iv, 1 mg/kg)","half-life (in vivo; iv, 1 mg/kg)","level at 0.083 h (in vivo; iv, 1 mg/kg)","level at 0.25 h (in vivo; iv, 1 mg/kg)","level at 0.5 h (in vivo; iv, 1 mg/kg)","level at 1 h (in vivo; iv, 1 mg/kg)","level at 2 h (in vivo; iv, 1 mg/kg)","level at 4 h (in vivo; iv, 1 mg/kg)","level at 8 h (in vivo; iv, 1 mg/kg)","AUC(0-inf) (in vivo; sc, 5 mg/kg)","Cmax (in vivo; sc, 5 mg/kg)","Tmax (in vivo; sc, 5 mg/kg)","half-life (in vivo; sc, 5 mg/kg)","level at 0.25 h (in vivo; sc, 5 mg/kg)","level at 0.5 h (in vivo; sc, 5 mg/kg)",further results
CCCCCCCCCCCC(=O)N[C@@H](CCC(=O)NCCCC[C@@H]1NC(=O)[C@H](Cc2ccc(O)cc2)NC(=O)[C@@H]2CSSC[C@H](NC(=O)[C@H](Cc3ccc(O)cc3)NC(=O)[C@H](Cc3c[nH]cn3)NC(=O)[C@H](Cc3ccc(O)cc3)NC(=O)[C@@H]3CCCN3C(=O)[C@H]3CCCN3C(=O)[C@H](CCCCN)NC1=O)C(=O)N[C@@H](CO)C(=O)N[C@@H](C)C(=O)N1CCC[C@@H]1C(=O)N[C@@H](CCN)C(=O)N[C@@H](CCCNC(=N)N)C(=O)N[C@@H](Cc1ccc(O)cc1)C(=O)N2)C(=O)O [Ex. 25] (cyclo(YHYCSA[dP][Dab]RYCYK([γGlu-Lauroyl])K[dP]P); disulfide 4-11),74%,24 h,142%,3480 ng·h/mL,2970 ng/mL,0.1 h,2.5 h,2970 ng/mL,2190 ng/mL,1990 ng/mL,1600 ng/mL,160 ng/mL,180 ng/mL,18 ng/mL,24700 ng·h/mL,2190 ng/mL,2 h,4.7 h,44 ng/mL,205 ng/mL,"level at 12 h (in vivo; iv, 1 mg/kg): 16 ng/mL; level at 1 h (in vivo; sc, 5 mg/kg): 517 ng/mL; level at 2 h (in vivo; sc, 5 mg/kg): 2190 ng/mL; level at 4 h (in vivo; sc, 5 mg/kg): 1640 ng/mL; level at 8 h (in vivo; sc, 5 mg/kg): 1890 ng/mL; level at 12 h (in vivo; sc, 5 mg/kg): 1210 ng/mL; level at 24 h (in vivo; sc, 5 mg/kg): 108 ng/mL; AUC0-∞ dcor. (in vivo; iv, 1 mg/kg): 3480.0 kg·ng·h/mg/mL; Cmax dcor. (in vivo; iv, 1 mg/kg): 2970.0 kg·ng/mg/mL; AUC0-∞ dcor. (in vivo; sc, 5 mg/kg): 4944.7 kg·ng·h/mg/mL; Cmax dcor. (in vivo; sc, 5 mg/kg): 437.4 kg·ng/mg/mL"
CCCCCCCCCCCC(=O)N[C@@H](CCC(=O)NCCCC[C@@H]1NC(=O)[C@H](Cc2ccc(O)cc2)NC(=O)[C@@H]2CSSC[C@H](NC(=O)[C@H](C)NC(=O)[C@H](Cc3c[nH]cn3)NC(=O)[C@H](Cc3ccc(O)cc3)NC(=O)[C@@H]3CCCN3C(=O)[C@H]3CCCN3C(=O)[C@H](CCCCN)NC1=O)C(=O)N[C@@H](CCCNC(=N)N)C(=O)N[C@@H](C)C(=O)N1CCC[C@@H]1C(=O)N[C@@H](CCN)C(=O)N[C@@H](CCCNC(=N)N)C(=O)N[C@@H](Cc1ccc(O)cc1)C(=O)N2)C(=O)O [Ex. 26] (cyclo(YHACRA[dP][Dab]RYCYK([γGlu-Lauroyl])K[dP]P); disulfide 4-11),65%,24 h,142%,3400 ng·h/mL,3470 ng/mL,0.1 h,1.3 h,3470 ng/mL,2530 ng/mL,1980 ng/mL,1540 ng/mL,219 ng/mL,98 ng/mL,10 ng/mL,24000 ng·h/mL,3990 ng/mL,2 h,2.9 h,221 ng/mL,779 ng/mL,"level at 1 h (in vivo; sc, 5 mg/kg): 1750 ng/mL; level at 2 h (in vivo; sc, 5 mg/kg): 3990 ng/mL; level at 4 h (in vivo; sc, 5 mg/kg): 2530 ng/mL; level at 8 h (in vivo; sc, 5 mg/kg): 1600 ng/mL; level at 12 h (in vivo; sc, 5 mg/kg): 524 ng/mL; level at 24 h (in vivo; sc, 5 mg/kg): 23 ng/mL; AUC0-∞ dcor. (in vivo; iv, 1 mg/kg): 3395.6 kg·ng·h/mg/mL; Cmax dcor. (in vivo; iv, 1 mg/kg): 3467.0 kg·ng/mg/mL; AUC0-∞ dcor. (in vivo; sc, 5 mg/kg): 4806.6 kg·ng·h/mg/mL; Cmax dcor. (in vivo; sc, 5 mg/kg): 797.4 kg·ng/mg/mL"
